Literature values, collected in patent US20200360292A1, “OIL-SOLUBLE DRUG CONTAINING COMPOSITIONS AND METHODS OF USE THEREOF” (priority 2019, published 2020).

Conditions: inhalation

Compound: CCCCCc1cc(O)c2c(c1)OC(C)(C)[C@@H]1CCC(C)=C[C@@H]21 [THC, Δ9-tetrahydrocannabinol]
- Time to maximum plasma concentration: within minutes
